Results published in patent US11111242B2, “Pyrrolo[2,3-d]pyrimidinyl, pyrrolo[2,3-b]pyrazinyl and pyrrolo[2,3-d]pyridinyl acrylamides” (Pfizer Inc., priority 2013, dated 2021).
Like-named read-outs stand apart in the source and are kept apart here.

Assays:
[1] = Stability of JAK3 covalent inhibitors in human whole blood; format: in vitro ADME; conditions: 37° C.; for half-life at 1 μM: both sexes, read-out: Human blood stability t1/2; for Human blood stability t1/2: 1 μM
Description: Human blood was collected from one male and one female healthy subjects at the Occupational Health & Wellness Center at Pfizer, Groton, Conn. and pooled for each study. Both rat and human blood was collected freshly into K2-EDTA tubes and kept on ice. An aliquot of the blood was transferred to microtubes and pre-warmed for 10 min at 37° C. using a heat block. […] An aliquot of the incubation mixture was removed at designated time points during the course of the incubation, mixed with an aliquot of acetonitrile containing an internal standard, vortexed and centrifuged. The resulting supernatants were removed and subjected to LC-MS/MS analyses to determine parent compound concentrations. Peak area ratios of the parent compound vs the internal standard were used to determine the % of parent compound remaining vs incubation time.

[2] = test system: IL-15 induced STAT5 phosphorylation in Human Whole Blood (total lymphocytes); assay: HWB IL-15 Induced STAT5 Phosphorylation Assay; format: cell-based; conditions: IL-15 stimulated, read-out: HWB-IL15-pSTAT5 IC50
[3] = test system: IL-15 induced P-STAT5 in human PBMC (total lymphocytes); assay: PBMC IL-15 Induced P-STAT5; format: cell-based; conditions: IL-15 stimulated, read-out: PBMC IL15-pSTAT5 IC50
How it was run: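 Thawed human PBMC in RPMI, preincubated 30 min at 37 °C, then IL-15 stimulated. Cells methanol-permeabilized (90%, on ice 20 min) and stained for phospho-STAT5. Read by flow cytometry, gated on total lymphocytes.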

[4] = target: JAK3 enzyme (Homo sapiens (Human), UniProt P52333); assay: JAK Caliper Enzyme Assay at 4 μM or 1 mM ATP; format: biochemical
Sequence of JAK3 enzyme (P52333 whole entry, species assumed): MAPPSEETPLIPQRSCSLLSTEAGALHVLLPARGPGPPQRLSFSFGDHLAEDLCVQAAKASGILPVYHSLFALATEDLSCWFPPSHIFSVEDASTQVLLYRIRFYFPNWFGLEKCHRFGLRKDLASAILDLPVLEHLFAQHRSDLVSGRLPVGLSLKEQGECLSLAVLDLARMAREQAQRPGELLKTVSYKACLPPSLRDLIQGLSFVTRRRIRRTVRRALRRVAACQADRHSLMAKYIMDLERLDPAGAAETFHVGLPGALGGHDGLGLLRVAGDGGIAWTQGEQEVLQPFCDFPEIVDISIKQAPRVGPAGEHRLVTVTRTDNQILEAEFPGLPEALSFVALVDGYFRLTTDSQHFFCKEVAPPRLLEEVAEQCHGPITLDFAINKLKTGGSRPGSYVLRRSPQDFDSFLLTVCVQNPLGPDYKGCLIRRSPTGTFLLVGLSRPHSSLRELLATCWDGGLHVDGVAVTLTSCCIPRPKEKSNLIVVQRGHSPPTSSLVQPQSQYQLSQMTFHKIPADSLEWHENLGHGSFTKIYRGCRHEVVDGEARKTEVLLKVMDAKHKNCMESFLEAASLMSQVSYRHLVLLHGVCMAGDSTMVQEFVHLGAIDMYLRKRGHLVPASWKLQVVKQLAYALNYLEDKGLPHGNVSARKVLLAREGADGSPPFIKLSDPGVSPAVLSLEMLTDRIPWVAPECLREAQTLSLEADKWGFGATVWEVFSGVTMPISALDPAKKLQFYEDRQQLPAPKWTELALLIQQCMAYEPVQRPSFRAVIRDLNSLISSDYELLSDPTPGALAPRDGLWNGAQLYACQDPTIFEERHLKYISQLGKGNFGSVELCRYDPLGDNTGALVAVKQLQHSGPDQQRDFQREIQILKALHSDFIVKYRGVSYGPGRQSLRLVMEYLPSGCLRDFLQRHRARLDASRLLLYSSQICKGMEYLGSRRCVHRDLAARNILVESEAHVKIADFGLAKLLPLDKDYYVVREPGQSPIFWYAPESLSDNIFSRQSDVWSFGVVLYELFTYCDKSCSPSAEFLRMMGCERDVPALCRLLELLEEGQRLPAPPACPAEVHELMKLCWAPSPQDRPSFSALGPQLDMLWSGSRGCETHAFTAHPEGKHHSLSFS
Description: JAK Caliper Enzyme Assay at 4 μM or 1 mM ATP
Test article was solubilized in dimethyl sulfoxide (DMSO) to a stock concentration of 30 mM. An 11-point half log dilution series was created in DMSO with a top concentration of 600 μM. […] The compound plates were diluted 1 to 60 resulting in a top final assay compound concentration of 10 μM and a 2% DMSO concentration.
Test article and assay controls were added to a 384-well plate. Reaction mixtures contained 20 mM HEPES, pH 7.4, 10 mM magnesium chloride, 0.01% bovine serum albumin (BSA), 0.0005% Tween 20, 4 μM or 1 mM ATP and 1 μM peptide substrate. […] The assays were initiated by the addition 1 nM JAK3 enzyme and were incubated at room temperature 75 minutes for JAK3. Enzyme concentrations and incubation times were optimized for each new enzyme preps and were modified slightly over time to ensure 20%-30% phosphorylation. The assays were stopped with a final concentration of 10 mM EDTA, 0.1% Coating Reagent and 100 mM HEPES, pH=7.4. The assay plates were placed on a Caliper Life Science Lab Chip 3000 (LC3000) instrument, and each well was sampled using appropriate separation conditions to measure the unphosphorylated and phosphorylated peptide.

[5] = read-out: JAK3 (1 mM ATP) IC50, 1 mM ATP

IC50 ([2]; Lymphocyte) [nM] | Structure (SMILES) | IC50 [3] [nM] | other results
> 10000 | C=CC(=O)N1C[C@@H](Nc2ncnc3[nH]ccc23)[C@@H]2CC[C@H]1C2 (racemic) [Example 116, Rac-1-((1R,4R,5S)-4-(7H-pyrrolo[2,3-d]pyrimidin-4-ylamino)-2-azabicyclo[3.2.1]octan-2-yl)prop-2-en-1-one] | – | half-life at 1 μM [1]: 4.68 h; IC50 ([3]; Homo sapiens, PBMC): > 10000 nM
– | C=CC(=O)N1CC[C@H](Nc2cnc3[nH]cc(C(=O)NC(C)(C)C)c3n2)C[C@@H]1C (racemic) [Example 340] | – | half-life at 1 μM [1]: > 6 h
– | C=CC(=O)N1CC[C@@H](Nc2cnc3[nH]cc(C(=O)NC(C)(C)C)c3n2)C[C@H]1C (single isomer, unassigned) [Example 342] | – | half-life at 1 μM [1]: > 6 h
– | C=CC(=O)N1CCC[C@@H](Nc2ncnc3[nH]cc(-c4ccc(C(=O)NC5CC5)c(Cl)c4)c23)C1 [Example 31, 4-(4-{[(3R)-1-acryloylpiperidin-3-yl]amino}-7H-pyrrolo[2,3-d]pyrimidin-5-yl)-2-chloro-N-cyclopropylbenzamide] | – | half-life at 1 μM [1]: > 6 h
1000 | C=CC(=O)N1C[C@@H](O)C[C@@H](Nc2ncnc3[nH]cc(Cl)c23)C1 [Example 162, 1-{(3R,5S)-3-[(5-Chloro-7H-pyrrolo[2,3-d]pyrimidin-4-yl)amino]-5-hydroxypiperidin-1-yl}prop-2-en-1-one] | 361 | half-life at 1 μM [1]: > 6 h
– | C=CC(=O)N1CC2CCN(c3cnc4[nH]cc(C(=O)NC(C)C)c4n3)C2C1 (stereo not shown) [Example 178, 2-(5-acryloylhexahydropyrrolo[3,4-b]pyrrol-1(2H)-yl)-N-(propan-2-yl)-5H-pyrrolo[2,3-b]pyrazine-7-carboxamide] | 208 | Human blood stability t1/2 [1]: 2.38 h; IC50 [2]: 2560 nM
– | C=CC(=O)N1CCC(Oc2cnc3[nH]cc(-c4cnn(C)c4)c3n2)CC1 [Example 218, 1-(4-{[7-(1-methyl-1H-pyrazol-4-yl)-5H-pyrrolo[2,3-b]pyrazin-2-yl]oxy}piperidin-1-yl)prop-2-en-1-one] | 345 | Human blood stability t1/2 [1]: >6 h; IC50 [2]: 6190 nM
– | C=CC(=O)N1CCC(Nc2cnc3[nH]cc(C(=O)N[C@@H](C)C(=O)NCCC#N)c3n2)CC1 [Example 264, 2-[(1-acryloylpiperidin-4-yl)amino]-N-{(2S)-1-[(2-cyanoethyl)aminop]-oxopropan-2-yl}-5H-pyrrolo[2,3-b]pyrazine-7-carboxamide] | 4480 | IC50 ([4]; read-out: JAK3 (4 μM ATP) IC50, 4 μM ATP): 2.6 nM; IC50 [4, 5]: 226 nM
2730 | C=CC(=O)N1CCN(c2cnc3[nH]cc(C(=O)NC(C)C)c3n2)C[C@@H]1CC(C)C [Example 303, 2-[(3S)-4-acryloyl-3-(2-methylpropyl)piperazin-1-yl]-N-(propan-2-yl)-5H-pyrrolo[2,3-b]pyrazine-7-carboxamide] | – | IC50 ([3]; Homo sapiens, PBMC): 294 nM
2640 | C=CC(=O)N1CC[C@@H](Nc2cnc3[nH]cc(C(=O)NC(C)C)c3n2)[C@H](OC)C1 [Example 305, 2-{[(3R,4R)-1-acryloyl-3-methoxypiperidin-4-yl]amino}-N-(propan-2-yl)-5H-pyrrolo[2,3-b]pyrazine-7-carboxamide] | 744 | –
– | C=CC(=O)N1CCN(c2cnc3[nH]cc(C(=O)NC(C)C)c3n2)C[C@H]1CC [Example 311, 2-[(3R)-4-acryloyl-3-ethylpiperazin-1-yl]-N-(propan-2-yl)-5H-pyrrolo[2,3-b]pyrazine-7-carboxamide] | 696 | IC50 [4, 5]: 220 nM
420 | C=CC(=O)N1CC[C@H](Nc2cnc3[nH]cc(C(=O)NC(C)C)c3n2)[C@H](OC)C1 [Example 317, 2-{[(3R,4S)-1-acryloyl-3-methoxypiperidin-4-yl]amino}-N-(propan-2-yl)-5H-pyrrolo[2,3-b]pyrazine-7-carboxamide] | 243 | –
2080 | C=CC(=O)N1CCC(C)(Nc2cnc3[nH]cc(C(=O)NC(C)C)c3n2)CC1 [Example 318, 2-[(1-acryloyl-4-methylpiperidin-4-yl)amino]-N-(propan-2-yl)-5H-pyrrolo[2,3-b]pyrazine-7-carboxamide] | 260 | –
343 | C=CC(=O)N1CC[C@@H](Nc2cnc3[nH]cc(C(=O)NC(C)C)c3n2)[C@@H](F)C1 [Example 320, 2-{[(3S,4R)-1-acryloyl-3-fluoropiperidin-4-yl]amino}-N-(propan-2-yl)-5H-pyrrolo[2,3-b]pyrazine-7-carboxamide] | 61.1 | –
631 | C=CC(=O)N1CC(Nc2cnc3[nH]ccc3n2)C1 [Example 337, 1-(3-((5H-Pyrrolo[2,3-b]pyrazin-2-yl)amino)azetidin-1-yl)prop-2-en-1-one] | – | IC50 ([3]; Homo sapiens, PBMC): 237 nM
502 | C=CC(=O)N1CCC(Oc2cnc3[nH]cc(C(=O)NC(C)C)c3n2)CC1 [Example 339, 2-((1-Acryloylpiperidin-4-yl)oxy)-N-isopropyl-5H-pyrrolo[2,3-b]pyrazine-7-carboxamide] | 80.6 | –
– | C=CC(=O)N1CC[C@H](Nc2cnc3[nH]cc(C(=O)NC(C)(C)C)c3n2)C[C@@H]1C [Example 341, 2-(((2S,4S)-1-Acryloyl-2-methylpiperidin-4-yl)amino)-N-(tert-butyl)-5H-pyrrolo[2,3-b]pyrazine-7-carboxamide] | – | Human blood stability t1/2 [1]: >6 h
105 | C#CCNC(=O)c1c[nH]c2ncc(NC3CCN(C(=O)C=C)CC3)nc12 [Example 343, 2-((1-Acryloylpiperidin-4-yl)amino)-N-(prop-2-yn-1-yl)-5H-pyrrolo[2,3-b]pyrazine-7-carboxamide] | 36.8 | –
